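Dose response: 5 concentrations. Exposure: 48 h. Format: 96-well plates. Endpoint: linear interpolation; highest concentration if not reached. GI50: concentration for 50% inhibition of growth. TGI marks complete inhibition of growth.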

Assay in all cases: NCI anticancer screen, dose series, 48 h
Test [1] deals with CAKI-1 renal.
Test [2] has as its system COLO 205 colon.
For test [3], the system named is K-562 leukemia.
Test [4] relates to MALME-3M melanoma.
In test [5] the test system is NCI/ADR-RES ovarian.
Test [6] relates to PC-3 prostate.
Test [7] has as its system SK-MEL-28 melanoma.
The subject of test [8] is SK-OV-3 ovarian.
Test [9] deals with SR leukemia.
Test [10] concerns OVCAR-4 ovarian.

As for `C=C(C)OCOCCOC`, the TGI in [1], in test [2], in test [3], in test [4], in [5] and in [6] was > 100 µM in each case. Moreover, the TGI in test [7], in test [8] and in test [9] was > 100 µM throughout.
As for `NC(=O)c1csc(C2(O)COC(CO)C2O)n1` (stereo unspecified), the TGI in [1], in test [2], in [4], in [5], in test [10] and in test [6] was > 100 µM in each case. Besides, the TGI in test [7], in test [8] and in test [9] was > 100 µM in each case.
As for `COc1ccc(Nc2nc(N)c(C(=O)c3c[nH]c4ccccc34)s2)cc1`, the TGI in test [1] was > 100 µM; in test [2], 4.06 µM; in [4], 21.6 µM; in test [5], 19.4 µM; in test [10], > 100 µM; in test [6], > 100 µM. In addition, the TGI in test [7] is > 91.6 µM; in [8], > 100 µM; in [9], 0.796 µM.
As to `Cc1cc(C)c2c(=O)cc(-c3cccc(F)c3)[nH]c2n1`, the TGI in test [1] is > 66.3 µM; in [2] it was 0.354 µM; in test [3], > 32.1 µM; in test [4], > 100 µM; in test [10] it was > 100 µM; in [6], > 49.1 µM. The TGI in test [7] was 92.9 µM; in test [8] it was > 100 µM; in [9], 0.122 µM.
For `Cc1ccc(C(=O)N/N=C(\N=Nc2ccccc2)c2ccc(N(C)C)cc2)cc1`, the TGI in test [1], in [2], in [3], in test [5], in test [10] and in test [6] was > 100 µM in each case. In addition, the TGI in test [7], in [8] and in test [9] was > 100 µM in each case.
Turning to `CCc1c(CNc2ccc(C(=O)NC(CC(=O)O)C(=O)O)cc2)ccc2nc(N)nc(N)c12` (stereo unspecified), the TGI in test [1], in test [3], in test [4], in [5], in [10] and in [6] was > 1000 µM each time. Besides, the TGI in test [7], in test [8] and in test [9] was > 1000 µM in each case. The GI50 in [4] is 0.179 µM; in test [10], 869 µM; in test [6], < 0.01 µM; in test [7], > 1000 µM; in test [8], > 1000 µM.
Regarding `CC1(C)OCC2OC3([C@@H]4OC(C)(C)O[C@H]4CO)OC(C)(C)OC3C2O1` (stereo partly specified), the TGI in [1], in test [2], in [3], in test [5], in test [10] and in test [6] was > 100 µM in each case. The TGI in test [7] and in test [9] was > 100 µM in each case.
In the case of `Cc1[nH]c(=O)nc(NCCNCCO)c1C(=O)Nc1cccc2cc3ccccc3cc12`, the TGI in test [1], in test [2], in test [3], in [4], in test [5] and in [10] was > 100 µM throughout. Further, the TGI in [6], in test [7] and in test [9] was > 100 µM throughout.
Consider `CCCCC1=C(C(=O)N2CCOCC2)C2(OCCO2)C1=O`, for which the TGI in test [1] is 78.1 µM; in [2], 40.2 µM; in test [4], 57 µM; in test [5], 57.2 µM; in [10], > 100 µM; in [6], 98.3 µM. Also, the TGI in [7] was 94.8 µM; in [8], > 100 µM; in [9], > 100 µM.
Take `COc1cc(-c2n/c(=C\c3c(O)[nH]c4ccc(Cl)cc34)cc3c2=Nc2ccccc2-3)ccc1F`: the GI50 is 2.55 µM in test [1]; 2.22 µM in test [3]; 2.03 µM in test [5]; 1.74 µM in test [10]; 2 µM in test [6]; 2.27 µM in test [7]. For the same compound, the results for the GI50 in test [8] and in test [9] were 2.29 µM and 1.08 µM, respectively. The TGI in test [1] came to 8.66 µM; in test [3], 5.98 µM; in [5] it was 5.04 µM; in test [10], 3.48 µM; in test [6] it was 5.88 µM; in test [7], 5.02 µM. Moreover, the TGI in test [8] stood at 5.3 µM; in [9], 4.76 µM.
Turning to `CS(=O)(=O)Nc1ccc2c(c1)N(S(C)(=O)=O)CC2CCl` (stereo unspecified), the TGI in test [1], in [2], in test [3], in test [4], in test [5] and in test [10] was > 100 µM in each case. For the same compound, the TGI in test [6], in [7] and in test [9] was > 100 µM throughout.
With `C=C1C(OC2O[C@@H]3O[C@@]4(C)CC[C@H]5[C@H](C)CC[C@@H](C2=C)[C@@]35O4)O[C@@H]2O[C@@]3(C)CC[C@H]4[C@H](C)CC[C@@H]1[C@@]24O3` (stereo partly specified), the TGI in [1], in test [2], in [3], in test [4], in test [10] and in [6] was > 50 µM each time. Besides, the TGI in test [7], in test [8] and in test [9] was > 50 µM each time.
Turning to `Cc1cc(S(=O)(=O)Nc2n[nH]c(-c3ccccn3)n2)c(S)cc1Cl`, the TGI is 15.7 µM in [1]; 90.6 µM in test [2]; 60.3 µM in test [4]; 35.3 µM in test [5]; 65.5 µM in test [10]; > 100 µM in [6]. Further, the TGI in [7] was > 100 µM; in [8] it was 37.3 µM; in [9], > 100 µM.
Turning to `CC(C)(C)OC(=O)NC(Cc1ccccc1)NC(=O)NC(=O)OCc1ccccc1` (stereo unspecified), the TGI in [1] was 64.1 µM; in test [3], > 100 µM; in test [4] it was > 100 µM; in test [5], > 100 µM; in [6] it was > 100 µM; in [7] it was > 100 µM. Moreover, the TGI in test [8] and in [9] was > 100 µM in each case.

Source of the values: PubChem BioAssay (NCI).
